Reference: BindingDB's records for doi:10.7270/Q2JS9NV0 (Nmmlsc, 2009)

Target: Ras-related C3 botulinum toxin substrate 1 (Mus musculus, UniProt P63001)
Assay: analog inhibition of wildtype Rac1 nucleotide binding – biochemical, oxadiazole analogs, multiplex bead flow cytometry, SAR follow-up (AID 2027)

How did the Ki turn out when `COc1ccc(-c2noc(CCC(=O)N3CCN(c4ccccc4F)CC3)n2)cc1` [1-[4-(2-fluorophenyl)piperazin-1-yl]-3-[3-(4-methoxyphenyl)-1,2,4-oxadiazol-5-yl]propan-1-one] was run?
The Ki was 100 nM.
